Measurements taken from ChEMBL document CHEMBL1201862, “PubChem BioAssay data set” (2004).
Active and inactive are the calls of the source.

Experiments:
[1] = Counterscreen for IDE inhibitors: Luminescence-based cell-based high throughput dose response assay to identify compounds that are cytotoxic to HEK cells. [Related pubchem assays: 434962 (Primary screen (IDE inhibitors in singlicate)), 449730 (Counterscreen (Cytotoxicity in triplicate)), 435028 (Confirmation (IDE inhibitors in triplicate)) …; format: functional; settings: HEK293
[2] = biological target: T1, Insulin-degrading enzyme (Homo sapiens, UniProt P14735); experiment: Dose Response: Fluorescence polarization-based cell-based high throughput dose response assay for inhibitors of insulin-degrading enzyme (IDE). [Related pubchem assays: 434962 (Primary screen (IDE inhibitors in singlicate)), 449730 (Counterscreen (Cytotoxicity in triplicate)), 435028 (Confirmation (IDE inhibitors in triplicate)), 434984 (Summary …; format: functional
T1 sequence (P14735 whole entry): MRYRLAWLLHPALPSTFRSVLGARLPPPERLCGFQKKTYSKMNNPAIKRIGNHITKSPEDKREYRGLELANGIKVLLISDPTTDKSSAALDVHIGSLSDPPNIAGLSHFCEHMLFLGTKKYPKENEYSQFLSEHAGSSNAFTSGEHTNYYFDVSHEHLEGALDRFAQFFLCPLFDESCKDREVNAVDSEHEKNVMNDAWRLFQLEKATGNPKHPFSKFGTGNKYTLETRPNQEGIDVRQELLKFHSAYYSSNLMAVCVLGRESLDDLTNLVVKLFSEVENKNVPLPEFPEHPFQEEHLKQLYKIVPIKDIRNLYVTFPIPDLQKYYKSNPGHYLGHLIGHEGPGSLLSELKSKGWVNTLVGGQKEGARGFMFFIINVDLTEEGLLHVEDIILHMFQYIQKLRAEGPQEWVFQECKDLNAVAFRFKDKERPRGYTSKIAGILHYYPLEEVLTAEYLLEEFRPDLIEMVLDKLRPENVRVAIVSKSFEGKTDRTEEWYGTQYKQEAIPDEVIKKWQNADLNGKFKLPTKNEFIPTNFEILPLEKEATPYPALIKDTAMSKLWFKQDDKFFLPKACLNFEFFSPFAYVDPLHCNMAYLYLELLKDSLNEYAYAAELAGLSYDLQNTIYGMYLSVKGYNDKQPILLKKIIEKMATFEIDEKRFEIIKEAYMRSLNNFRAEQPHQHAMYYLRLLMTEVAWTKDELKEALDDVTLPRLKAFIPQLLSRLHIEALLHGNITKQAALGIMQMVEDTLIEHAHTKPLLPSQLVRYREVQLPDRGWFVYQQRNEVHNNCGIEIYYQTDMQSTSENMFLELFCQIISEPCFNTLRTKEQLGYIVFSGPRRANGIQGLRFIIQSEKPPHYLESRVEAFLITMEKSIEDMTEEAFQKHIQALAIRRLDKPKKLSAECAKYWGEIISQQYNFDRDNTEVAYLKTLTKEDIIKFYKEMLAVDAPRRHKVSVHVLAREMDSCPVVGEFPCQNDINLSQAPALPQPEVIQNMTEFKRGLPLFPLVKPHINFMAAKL

[3] = biological target: T2, Mannose-6-phosphate isomerase (Homo sapiens, UniProt P34949); experiment: phosphomannose isomerase inhibition – biochemical, fluorescence intensity, confirmation (AID 1535)
T2 sequence (P34949 whole entry): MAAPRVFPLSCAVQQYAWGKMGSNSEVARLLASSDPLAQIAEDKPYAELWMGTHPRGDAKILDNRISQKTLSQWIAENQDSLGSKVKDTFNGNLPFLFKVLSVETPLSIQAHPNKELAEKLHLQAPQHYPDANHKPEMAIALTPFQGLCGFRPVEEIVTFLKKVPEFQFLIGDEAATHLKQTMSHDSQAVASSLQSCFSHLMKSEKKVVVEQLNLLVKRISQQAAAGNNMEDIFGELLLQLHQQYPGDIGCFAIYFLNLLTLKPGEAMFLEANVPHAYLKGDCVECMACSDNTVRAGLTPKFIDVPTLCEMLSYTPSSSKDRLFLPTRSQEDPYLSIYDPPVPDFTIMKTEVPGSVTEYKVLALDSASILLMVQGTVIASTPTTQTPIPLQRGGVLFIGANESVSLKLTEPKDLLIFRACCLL

[4] = biological target: DNA dC->dU-editing enzyme APOBEC-3A (Homo sapiens, UniProt P31941); experiment: A3A deaminase inhibition for selectivity – biochemical, dose response (AID 504722); format: functional
[5] = biological target: T3, Phosphomannomutase 2 (Homo sapiens, UniProt O15305); experiment: Counter screen SAR assay for PMM2 inhibitors via a fluorescence intensity assay. [Related pubchem assays (depositor defined):AID1545, AID1574]
T3 sequence (O15305 whole entry): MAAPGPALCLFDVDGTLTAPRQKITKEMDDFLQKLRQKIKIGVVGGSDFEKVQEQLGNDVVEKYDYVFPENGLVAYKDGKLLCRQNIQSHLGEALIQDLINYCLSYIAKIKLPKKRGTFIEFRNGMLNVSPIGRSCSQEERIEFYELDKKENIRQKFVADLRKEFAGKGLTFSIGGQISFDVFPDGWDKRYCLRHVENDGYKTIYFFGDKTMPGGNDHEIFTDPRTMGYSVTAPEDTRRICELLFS

[6] = biological target: Phosphoethanolamine/phosphocholine phosphatase (Homo sapiens, UniProt Q8TCT1); experiment: SAR assay for compounds that inhibit PHOSPHO1. [Related pubchem assays (depositor defined):AID1545, AID1565, AID1574]
[7] = biological target: DNA dC->dU-editing enzyme APOBEC-3G (Homo sapiens, UniProt Q9HC16); experiment: Dose Response confirmation of small molecule APOBEC3G DNA Deaminase Inhibitors via a fluorescence-based single-stranded DNA deaminase assay. [Related pubchem assays (depositor defined):AID493012, AID493028]; format: functional
[8] = biological target: T4, Alkaline phosphatase, tissue-nonspecific isozyme (Homo sapiens, UniProt P05186); experiment: potency against alkaline phosphatase TNAP – biochemical, luminescent, dose response, SAR follow-up (AID 1056)
T4 sequence (P05186 whole entry): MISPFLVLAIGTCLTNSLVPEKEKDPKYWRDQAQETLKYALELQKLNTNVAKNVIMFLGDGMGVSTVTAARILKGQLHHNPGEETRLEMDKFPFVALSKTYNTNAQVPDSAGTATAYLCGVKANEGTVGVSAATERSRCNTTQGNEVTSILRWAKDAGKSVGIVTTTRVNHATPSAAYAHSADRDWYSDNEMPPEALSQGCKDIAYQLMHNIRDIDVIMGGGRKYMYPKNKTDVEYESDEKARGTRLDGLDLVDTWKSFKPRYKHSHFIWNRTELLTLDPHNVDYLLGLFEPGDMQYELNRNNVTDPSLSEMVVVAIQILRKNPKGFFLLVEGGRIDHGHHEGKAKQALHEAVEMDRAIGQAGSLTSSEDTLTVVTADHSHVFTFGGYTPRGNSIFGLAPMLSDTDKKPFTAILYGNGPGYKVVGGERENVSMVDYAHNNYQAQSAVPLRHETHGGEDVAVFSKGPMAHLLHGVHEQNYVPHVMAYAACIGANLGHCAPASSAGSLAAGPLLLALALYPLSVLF

[9] = biological target: T5, Rac GTPase-activating protein 1 (Homo sapiens, UniProt Q9H0H5); experiment: blockers of MgcRacGAP-driven Rac1 GTP hydrolysis – biochemical, ADP Hunter fluorescence, primary and confirmatory, confirmation (AID 624330); format: functional
T5 sequence (Q9H0H5 whole entry): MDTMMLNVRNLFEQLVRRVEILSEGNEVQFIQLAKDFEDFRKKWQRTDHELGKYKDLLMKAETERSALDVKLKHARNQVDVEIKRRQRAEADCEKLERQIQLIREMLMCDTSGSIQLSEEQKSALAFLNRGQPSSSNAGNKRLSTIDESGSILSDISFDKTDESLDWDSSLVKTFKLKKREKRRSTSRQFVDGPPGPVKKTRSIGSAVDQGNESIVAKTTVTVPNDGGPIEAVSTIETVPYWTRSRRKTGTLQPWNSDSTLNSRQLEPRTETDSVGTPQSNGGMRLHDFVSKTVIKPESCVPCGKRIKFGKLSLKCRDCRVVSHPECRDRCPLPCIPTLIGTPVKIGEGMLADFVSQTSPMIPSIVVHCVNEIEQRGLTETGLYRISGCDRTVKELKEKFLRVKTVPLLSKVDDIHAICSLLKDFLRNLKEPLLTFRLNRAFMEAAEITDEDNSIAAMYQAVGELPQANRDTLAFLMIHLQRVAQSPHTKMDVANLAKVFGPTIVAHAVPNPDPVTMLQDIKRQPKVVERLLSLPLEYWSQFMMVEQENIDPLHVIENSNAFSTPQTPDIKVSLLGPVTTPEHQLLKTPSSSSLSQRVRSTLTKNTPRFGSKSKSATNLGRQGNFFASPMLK

[10] = biological target: Intestinal-type alkaline phosphatase (Homo sapiens, UniProt P09923); experiment: Dose Response confirmation of uHTS hits from a small molecule inhibitors of human intestinal alkaline phosphatase via a luminescent assay. [Related pubchem assays (depositor defined):AID2544, AID2574]; format: functional
[11] = tested on: Streptococcus sp. 'group A'; experiment: Streptococcus pyogenes SK(-)GAS viability under kanamycin – luminescence, BacTiterGlo, confirmation, counter-screen for streptokinase expression inhibitor project, dose response (AID 1900); format: functional, organism-based
[12] = biological target: T6, Streptokinase A (Streptococcus pyogenes serotype M1, UniProt P10520); experiment: viability-normalized secreted streptokinase activity reduction – plasminogen activation absorbance, OD405, dose response (AID 1914); format: functional, Streptococcus pyogenes M1 GAS;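 further: secreted streptokinase activity via plasminogen activation per viability signal from cell pellet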
T6 sequence (P10520 whole entry): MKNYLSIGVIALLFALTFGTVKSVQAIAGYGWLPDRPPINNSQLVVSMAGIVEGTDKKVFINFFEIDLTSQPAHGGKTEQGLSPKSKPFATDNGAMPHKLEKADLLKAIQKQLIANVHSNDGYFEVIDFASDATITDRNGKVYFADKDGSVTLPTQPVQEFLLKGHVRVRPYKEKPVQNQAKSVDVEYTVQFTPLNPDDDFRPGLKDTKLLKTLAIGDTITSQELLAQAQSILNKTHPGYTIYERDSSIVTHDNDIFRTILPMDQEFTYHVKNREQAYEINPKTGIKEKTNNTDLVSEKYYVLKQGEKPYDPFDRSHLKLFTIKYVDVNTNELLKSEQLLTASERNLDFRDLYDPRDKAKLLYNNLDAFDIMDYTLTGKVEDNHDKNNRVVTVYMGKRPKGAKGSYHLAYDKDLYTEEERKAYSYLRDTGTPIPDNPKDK

[13] = biological target: Large T antigen (Simian virus 40, UniProt P03070); format: functional, Betapolyomavirus macacae;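 further: Confirmatory-stage PubChem screen for compounds that inhibit SV40 T antigen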
[14] = biological target: T2, Mannose-6-phosphate isomerase; experiment: MPI enzyme activity inhibition – biochemical, fluorescence intensity, coupled assay, primary screen (AID 1209)
[15] = viability of PTEN-deleted HCT116 cells – cell-based, HCT116 PTEN knockout, dose response (AID 1047); format: functional;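 further: HCT116 colon tumor cells with PTEN knocked out; cells exposed to compound for 60 hours before readout; potency for loss of cell viability measured by luminescence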
[16] = viability of HCT116 lacking mutant beta-catenin – cell-based, human colon tumor, dose response (AID 1045); format: functional;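 further: HCT116 colon tumor cells with beta catenin knocked out; cells exposed to compound for 60 hours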
[17] = tested on: Streptococcus; experiment: GAS UMAA2166 growth inhibition – luminescence, BacTiterGlo, counter-screen for streptokinase expression inhibitor project, dose response (AID 1915); format: functional, organism-based;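 further: potency for reduction of bacterial viability or growth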
[18] = biological target: T2, Mannose-6-phosphate isomerase; experiment: MPI inhibition at elevated mannose 6-phosphate – biochemical, fluorescence intensity, high mannose 6-phosphate, primary screen (AID 1220)
[19] = biological target: Glucose-6-phosphate 1-dehydrogenase (Homo sapiens, UniProt P11413); experiment: inhibition of Homo sapiens G6PD, dose series – biochemical, fluorescence, selectivity assay for P. falciparum G6PD inhibitor project, dose response (AID 504792); format: functional
[20] = biological target: Eukaryotic translation initiation factor 4E (Mus musculus, UniProt P63073); experiment: blockers of eIF4G binding by eIF4E – biochemical, TR-FRET, dose response (AID 855); format: functional;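 further: potency for disrupting eIF4E binding to eIF4GI seen as loss of FRET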
[21] = biological target: T7, Polyadenylate-binding protein 1 (Homo sapiens, UniProt P11940); experiment: MLLE binding blockers, Cy5 peptide tracer – biochemical, fluorescence polarization, Cy5-PAM2 peptide, secondary, miRNA deadenylation inhibitor project, dose response (AID 602260); format: functional; settings: read-out: IC50_Mean
[22] = biological target: T7, Polyadenylate-binding protein 1; experiment: MLLE domain peptide-binding blockers, IC50 – biochemical, fluorescence polarization, FITC-PAM2 peptide, dose response (AID 602259); format: functional; settings: read-out: IC50_Mean

Sequence of Phosphoethanolamine/phosphocholine phosphatase (Q8TCT1 whole entry): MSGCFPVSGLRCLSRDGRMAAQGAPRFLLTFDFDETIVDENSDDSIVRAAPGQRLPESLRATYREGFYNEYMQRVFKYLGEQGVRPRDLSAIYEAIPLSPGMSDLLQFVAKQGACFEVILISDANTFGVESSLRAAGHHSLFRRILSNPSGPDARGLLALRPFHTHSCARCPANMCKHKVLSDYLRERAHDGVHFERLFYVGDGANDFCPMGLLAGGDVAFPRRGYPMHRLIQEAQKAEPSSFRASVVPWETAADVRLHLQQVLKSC
Sequence of DNA dC->dU-editing enzyme APOBEC-3A (P31941 whole entry): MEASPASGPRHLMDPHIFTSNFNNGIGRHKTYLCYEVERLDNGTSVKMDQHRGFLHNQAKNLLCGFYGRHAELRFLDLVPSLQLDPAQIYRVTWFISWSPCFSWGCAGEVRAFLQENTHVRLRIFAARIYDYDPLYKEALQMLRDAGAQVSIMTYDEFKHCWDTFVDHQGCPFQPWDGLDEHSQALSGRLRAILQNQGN
Sequence of Intestinal-type alkaline phosphatase (P09923 whole entry): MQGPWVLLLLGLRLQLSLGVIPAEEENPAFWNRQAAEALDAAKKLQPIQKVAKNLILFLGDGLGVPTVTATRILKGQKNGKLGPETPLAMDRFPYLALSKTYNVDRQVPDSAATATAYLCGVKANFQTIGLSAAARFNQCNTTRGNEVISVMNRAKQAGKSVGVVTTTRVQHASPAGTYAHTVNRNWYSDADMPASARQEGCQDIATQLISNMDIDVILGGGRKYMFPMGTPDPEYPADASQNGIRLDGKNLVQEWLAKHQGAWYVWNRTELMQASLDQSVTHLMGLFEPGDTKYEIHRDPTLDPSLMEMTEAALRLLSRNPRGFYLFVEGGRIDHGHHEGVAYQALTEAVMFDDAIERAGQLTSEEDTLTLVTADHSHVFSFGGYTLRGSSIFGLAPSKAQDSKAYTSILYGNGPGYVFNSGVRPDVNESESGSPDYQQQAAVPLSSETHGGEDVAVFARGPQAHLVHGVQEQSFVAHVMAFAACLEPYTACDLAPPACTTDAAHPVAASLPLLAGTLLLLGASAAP
T7 sequence (P11940 whole entry, the tested form may be a part): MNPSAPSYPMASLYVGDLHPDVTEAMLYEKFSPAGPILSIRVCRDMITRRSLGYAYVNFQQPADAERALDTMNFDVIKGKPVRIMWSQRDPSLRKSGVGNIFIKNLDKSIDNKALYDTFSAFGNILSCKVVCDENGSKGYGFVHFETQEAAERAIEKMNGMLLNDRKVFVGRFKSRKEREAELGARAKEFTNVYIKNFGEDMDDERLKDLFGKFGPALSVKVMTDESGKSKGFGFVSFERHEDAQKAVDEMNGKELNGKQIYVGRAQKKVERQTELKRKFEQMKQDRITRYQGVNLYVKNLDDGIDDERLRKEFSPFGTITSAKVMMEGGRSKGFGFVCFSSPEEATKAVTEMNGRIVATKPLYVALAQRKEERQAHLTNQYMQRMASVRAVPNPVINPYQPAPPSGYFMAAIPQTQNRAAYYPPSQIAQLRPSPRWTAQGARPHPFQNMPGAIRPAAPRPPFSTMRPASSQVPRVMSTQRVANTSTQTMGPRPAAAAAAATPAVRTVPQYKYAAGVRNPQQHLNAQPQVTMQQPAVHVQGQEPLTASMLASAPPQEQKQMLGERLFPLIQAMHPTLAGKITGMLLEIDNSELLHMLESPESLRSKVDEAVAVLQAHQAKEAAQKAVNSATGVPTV
Sequence of DNA dC->dU-editing enzyme APOBEC-3G (Q9HC16 whole entry): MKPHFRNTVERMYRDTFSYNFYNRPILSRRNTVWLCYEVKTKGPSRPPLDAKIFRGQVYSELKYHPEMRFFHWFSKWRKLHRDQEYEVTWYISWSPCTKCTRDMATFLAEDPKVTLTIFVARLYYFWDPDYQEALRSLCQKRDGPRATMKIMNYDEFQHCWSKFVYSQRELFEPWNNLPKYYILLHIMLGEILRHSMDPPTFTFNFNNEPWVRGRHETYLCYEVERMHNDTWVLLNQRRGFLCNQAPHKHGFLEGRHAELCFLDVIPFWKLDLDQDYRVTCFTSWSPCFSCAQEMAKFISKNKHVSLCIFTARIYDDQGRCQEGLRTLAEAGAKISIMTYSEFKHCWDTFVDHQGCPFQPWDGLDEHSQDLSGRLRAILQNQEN
Sequence of Large T antigen (P03070 whole entry): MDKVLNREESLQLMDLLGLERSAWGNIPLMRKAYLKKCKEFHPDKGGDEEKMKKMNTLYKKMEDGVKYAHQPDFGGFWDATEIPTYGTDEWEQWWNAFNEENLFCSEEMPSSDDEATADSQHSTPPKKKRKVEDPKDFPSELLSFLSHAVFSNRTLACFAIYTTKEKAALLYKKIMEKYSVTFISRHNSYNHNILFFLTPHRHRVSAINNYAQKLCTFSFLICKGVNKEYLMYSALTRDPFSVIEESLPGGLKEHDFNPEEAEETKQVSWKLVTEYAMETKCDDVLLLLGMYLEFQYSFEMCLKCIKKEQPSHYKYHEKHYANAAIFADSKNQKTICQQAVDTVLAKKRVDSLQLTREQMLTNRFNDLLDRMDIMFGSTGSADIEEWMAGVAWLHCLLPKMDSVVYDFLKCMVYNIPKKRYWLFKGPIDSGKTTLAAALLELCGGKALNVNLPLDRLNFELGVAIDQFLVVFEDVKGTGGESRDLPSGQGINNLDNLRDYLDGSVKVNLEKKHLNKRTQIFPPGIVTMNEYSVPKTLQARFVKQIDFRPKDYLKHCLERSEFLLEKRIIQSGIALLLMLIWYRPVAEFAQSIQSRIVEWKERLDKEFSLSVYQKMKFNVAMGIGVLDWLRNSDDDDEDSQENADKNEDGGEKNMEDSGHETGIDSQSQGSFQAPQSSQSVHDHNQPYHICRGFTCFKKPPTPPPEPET
Sequence of Eukaryotic translation initiation factor 4E (P63073 whole entry): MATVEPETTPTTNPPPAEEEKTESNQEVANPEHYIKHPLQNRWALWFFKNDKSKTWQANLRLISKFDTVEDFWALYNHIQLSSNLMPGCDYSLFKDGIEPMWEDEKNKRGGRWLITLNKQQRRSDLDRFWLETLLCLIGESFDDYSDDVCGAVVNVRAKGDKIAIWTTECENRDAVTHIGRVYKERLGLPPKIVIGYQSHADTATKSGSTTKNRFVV
Sequence of Glucose-6-phosphate 1-dehydrogenase (P11413 whole entry): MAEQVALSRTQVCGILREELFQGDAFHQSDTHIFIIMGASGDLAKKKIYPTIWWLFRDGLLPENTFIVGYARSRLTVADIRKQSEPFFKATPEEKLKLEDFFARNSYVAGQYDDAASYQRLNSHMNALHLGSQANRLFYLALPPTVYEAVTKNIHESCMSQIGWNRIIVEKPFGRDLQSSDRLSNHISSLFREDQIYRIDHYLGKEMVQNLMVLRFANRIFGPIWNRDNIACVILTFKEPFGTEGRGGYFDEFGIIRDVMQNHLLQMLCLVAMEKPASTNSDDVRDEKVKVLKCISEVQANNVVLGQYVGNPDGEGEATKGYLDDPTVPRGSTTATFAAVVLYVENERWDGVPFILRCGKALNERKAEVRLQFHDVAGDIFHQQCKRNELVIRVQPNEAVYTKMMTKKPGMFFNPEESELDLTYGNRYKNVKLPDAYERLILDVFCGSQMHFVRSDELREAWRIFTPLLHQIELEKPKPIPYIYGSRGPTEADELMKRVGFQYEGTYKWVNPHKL

O=C(O)c1cccc(-n2sc3ccccc3c2=O)c1
IC50 [1]: 36.7 µM (not active) | IC50 [2]: 2.38 µM (active) | IC50 [3]: 3.29 µM (active) | IC50 [4]: > 100 µM (inactive) | IC50 [5]: 52.5 µM (active) | IC50 [6]: 1.14 µM (inactive) | IC50 [7]: 4.85 µM (active) | IC50 [8]: > 100 µM (inactive) | IC50 [9]: 30.1 µM (active)

Cc1cc(NC(=O)c2ccc(N3C(=O)C4C5C=CC(C5)C4C3=O)cc2)no1 (stereo not given)
IC50 [10]: > 100 µM (inactive)

O=C(Cn1sc2ccccc2c1=O)NC12CC3CC(CC(C3)C1)C2
EC50 [11]: 0.637 µM (active) | EC50 [12]: > 150 µM (not active) | IC50 [13]: 14 µM (active) | IC50 [14]: > 50 µM (not active) | EC50 [15]: 30.2 µM (active) | EC50 [16]: 22.4 µM (active) | EC50 [17]: 7.2 µM (active) | IC50 [18]: > 50 µM (not active) | IC50 [3]: > 50 µM (inactive) | IC50 [4]: > 100 µM (inactive) | IC50 [19]: 13.5 µM (active) | IC50 [5]: > 100 µM (inactive) | IC50 [20]: > 64 µM (inactive) | IC50 [7]: 6.94 µM (active) | IC50 [21]: > 66 µM (inactive) | IC50 [22]: > 66 µM (inactive)

O=C(CSc1nc(-c2cccs2)cc(C(F)(F)F)n1)NCc1ccccc1
IC50 [10]: > 100 µM (inactive)

O=c1c2ccc(F)cc2sn1-c1cc(Cl)cc(Cl)c1
IC50 [3]: > 50 µM (inactive) | IC50 [5]: > 100 µM (inactive) | IC50 [6]: > 100 µM (inactive)
